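How tested: cells in 96-well plates exposed to compound for 48 hours at five concentrations. At the GI50, growth is halved. TGI marks complete inhibition of growth.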
Legend:
Experiment in all cases: NCI anticancer screen, dose series, 48 h; in the data active means GI50 below about 0.43 µM; inactive means the rest
[1] = tested on: HS 578T breast
[2] = tested on: OVCAR-4 ovarian
[3] = tested on: HT29 colon
[4] = tested on: EKVX NSCLC
[5] = tested on: SW-620 colon
[6] = tested on: A549 NSCLC
[7] = tested on: TK-10 renal
[8] = tested on: U251 CNS
[9] = tested on: SN12C renal
[10] = tested on: OVCAR-8 ovarian
[11] = tested on: RPMI-8226 leukemia
[12] = tested on: UACC-257 melanoma
[13] = tested on: 786-0 renal
[14] = tested on: M14 melanoma
[15] = tested on: HCC-2998 colon
[16] = tested on: UACC-62 melanoma
[17] = tested on: KM12 colon
[18] = tested on: OVCAR-3 ovarian
[19] = tested on: SNB-19 CNS
[20] = tested on: SNB-75 CNS
[21] = tested on: OVCAR-5 ovarian
[22] = tested on: SR leukemia
[23] = tested on: CAKI-1 renal
[24] = tested on: LOX IMVI melanoma
[25] = tested on: HCT-15 colon
[26] = tested on: UO-31 renal
[27] = tested on: CCRF-CEM leukemia
[28] = tested on: RXF 393 renal
[29] = tested on: ACHN renal
[30] = tested on: MALME-3M melanoma
[31] = tested on: HL-60(TB) leukemia
[32] = tested on: NCI-H460 lung
[33] = tested on: BT-549 breast
[34] = tested on: HOP-92 NSCLC
[35] = tested on: HCT-116 colon
[36] = tested on: HOP-62 NSCLC
[37] = tested on: MOLT-4 leukemia
[38] = tested on: MDA-MB-231 breast
[39] = tested on: A498 renal
[40] = tested on: SK-MEL-28 melanoma
[41] = tested on: K-562 leukemia
[42] = tested on: MDA-MB-435
[43] = tested on: NCI-H226 lung
[44] = tested on: NCI-H23 lung
[45] = tested on: SK-MEL-5 melanoma
[46] = tested on: NCI/ADR-RES ovarian
[47] = tested on: SK-MEL-2 melanoma
[48] = tested on: COLO 205 colon
[49] = tested on: DU-145 prostate
[50] = tested on: T-47D breast
[51] = tested on: PC-3 prostate
[52] = tested on: SF-539 CNS
[53] = tested on: MCF7 breast
[54] = tested on: SK-OV-3 ovarian
[55] = tested on: SF-268 CNS
[56] = tested on: NCI-H522 lung

O=c1ncc(I)cn1C1CC(O)C(CO)O1 (stereo unspecified)
1250 µM: TGI [56]
1760 µM: TGI [26]
> 3250 µM: TGI [1] | TGI [2] | TGI [3] | TGI [4] | TGI [5] | TGI [6] | TGI [7] | TGI [8] | TGI [9] | TGI [10] | TGI [11] | TGI [12] | TGI [13] | TGI [14] | TGI [15] | TGI [16] | TGI [17] | TGI [18] | TGI [19] | TGI [20] | TGI [21] | TGI [22] | TGI [23] | TGI [24] | TGI [25] | TGI [27] | TGI [28] | TGI [29] | TGI [30] | TGI [31] | TGI [32] | TGI [33] | TGI [34] | TGI [35] | TGI [36] | TGI [37] | TGI [38] | TGI [39] | TGI [40] | TGI [41] | TGI [42] | TGI [43] | TGI [44] | TGI [45] | TGI [46] | TGI [47] | TGI [48] | TGI [49] | TGI [50] | TGI [51] | TGI [52] | TGI [53] | TGI [54] | TGI [55]
inactive: GI50 [1] > 3250 µM | GI50 [2] 1510 µM | GI50 [3] 1830 µM | GI50 [4] > 3250 µM | GI50 [5] 1130 µM | GI50 [6] 2460 µM | GI50 [7] > 3250 µM | GI50 [8] 1160 µM | GI50 [9] 2710 µM | GI50 [10] 2610 µM | GI50 [11] > 3250 µM | GI50 [12] > 3250 µM | GI50 [13] 3100 µM | GI50 [14] 1110 µM | GI50 [15] 2910 µM | GI50 [16] 1480 µM | GI50 [17] 1740 µM | GI50 [18] 1070 µM | GI50 [19] > 3250 µM | GI50 [20] > 3250 µM | GI50 [21] > 3250 µM | GI50 [22] 1170 µM | GI50 [23] 1470 µM | GI50 [24] 982 µM | GI50 [25] 1680 µM | GI50 [26] 711 µM | GI50 [27] 709 µM | GI50 [28] > 3250 µM | GI50 [29] 3120 µM | GI50 [30] > 3250 µM | GI50 [31] 613 µM | GI50 [32] 1540 µM | GI50 [33] 1510 µM | GI50 [34] > 3250 µM | GI50 [35] 1310 µM | GI50 [36] 2940 µM | GI50 [37] 1170 µM | GI50 [38] > 3250 µM | GI50 [40] 3150 µM | GI50 [41] 1220 µM | GI50 [42] 1020 µM | GI50 [43] > 3250 µM | GI50 [44] 1620 µM | GI50 [45] 2000 µM | GI50 [46] 1750 µM | GI50 [47] > 3250 µM | GI50 [48] 1210 µM | GI50 [49] 1530 µM | GI50 [50] 2220 µM | GI50 [51] > 3250 µM | GI50 [52] 2360 µM | GI50 [53] 1430 µM | GI50 [54] 2100 µM | GI50 [55] 2110 µM | GI50 [56] 668 µM

Reference: PubChem BioAssay (NCI)
